Experimental data reported in patent US20070208087A1, “Compounds, compositions and methods for the treatment of inflammatory diseases” (priority 2001, published 2007).
Several values for one entry are separate records, joined by “and”; a condition that tells them apart may be missing. Equal values may be shown once. Read-outs that look alike come from different tables or passages of the source.

Key:
Assay type in all cases: cell-based
microglia = assay: Ranking of NO release inhibition (Example 12); settings: Microglia, ranking table
From the text: The bis- and tris-dihydroxyaryl compounds were ranked in order of effectiveness for the inhibition of NO release as set out in Table 8.

[1] = system: EOC 13.31 microglia cells; assay: Inhibition of NO release from microglia following 24 hours pretreatment (Example 10); settings: for inhibition at 50 µM: Microglia
Description: This experiment was designed to determine if pretreatment for 24 hours with bis- and tris-dihydroxyaryl compounds changes NO inhibition previously observed with concurrent exposure of bis- and tris-dihydroxyaryl compounds. […] This study seeks to determine if pretreatment with bis- and tris-dihydroxyaryl compounds increases NO release inhibition. EOC 13.31 microglia cells were plated at 1×10^6 cells/ml in 96 well plates. After 48 hours, confluent cells were exposed to 50 μM compound (stock 10 mM in DMSO) prepared in fresh cell culture media. After 24 hours, 10 μg/ml LPS and 10 ng/ml IFNγ was added to wells directly without a media change. Cells were incubated for a further 48 hours and nitric oxide release was measured using the Griess Reaction.

[2] = system: EOC 13.31 microglia cells; assay: NO release inhibition in LPS/IFNγ stimulated microglia, concurrent treatment, Griess reaction at 24 hours (Example 6); settings: for NO release, Avg / inhibition at 50 µM: 24 hours; for inhibition at 50 µM: Microglia
Description: The purpose of this experiment was to screen compounds 3, 4, 21, 26, 51, 52, 66, and 78 for their ability to inhibit Nitric oxide release from microglia. […] EOC 13.31 microglia cells were plated into 96 well plates for 24 hours. Confluent cells were treated with 50 μM of the bis- and tris-dihydroxyaryl compounds either with or without stimulation at 1 pg/ml LPS, and 1 ng/ml IFNγ. NO release was measured at 24 hours using the Griess reaction which is a spectrophotometric measure of NO release (reagents from Promega).

Microglial cells = assay: Dose response inhibition of NO release from microglia, 0.75-200 μM (Example 8)
Description: This experiment was designed to determine dose response inhibition of NO release from microglia by bis- and tris-dihydroxyaryl compounds when stimulated with LPS/IFNγ. […] This experiment is designed to determine a dose response for various bis- and tris-dihydroxyaryl compounds. Microglial cells were plated into 96 well plates at 1×10^5 cells/ml. […] The doses tested were: 0.75 μM, 1.56 μM, 3.125 μM, 6.25 μM, 12.5 μM, 25 μM, 50 μM, 100 μM and 200 μM. Nitric oxide release was measured after 48 hours using the Griess reaction.

[3] = 50 uM pretreatment 24 hours, then LPS/IFNγ 48 hours, single replicates
[4] = 50 uM pretreatment 24 hours, then LPS/IFNγ 48 hours, read-out: Avg % Inhibition
[5] = 50 uM pretreatment 24 hours, then LPS/IFNγ 48 hours, single replicates, read-out: % inhibition
[6] = Compound Only (without LPS/IFNγ), 50 μM
[7] = Compound + LPS/IFNγ, read-out: % inhibition of NO release
[8] = Table 2 summary, LPS/IFNγ, read-out: % Inhibition (summary of inhibition of NO release)
[9] = dose 0.75 μM, 48 hours, single replicates
[10] = dose 1.56 μM, 48 hours, single replicates
[11] = dose 3.125 μM, 48 hours, single replicates
[12] = dose 6.25 μM, 48 hours, single replicates
[13] = dose 12.5 μM, 48 hours, single replicates
[14] = dose 25 μM, 48 hours, single replicates
[15] = dose 50 μM, 48 hours, single replicates
[16] = dose 100 μM, 48 hours, single replicates
[17] = dose 200 μM, 48 hours, single replicates

O=C(NCCc1ccc(O)c(O)c1)Nc1ccc(O)c(O)c1 [Compound 78, 1-(3,4-dihydroxyphenyl)-3-(3,4-dihydroxyphenethyl)urea]
inhibition at 50 µM (microglia): -1%
% inhibition [1, 3]: 57.93% and 69.00%
inhibition at 50 µM [1, 4]: 65.5%
inhibition at 50 µM [1, 5]: 69.6%
NO release, Avg ([2]; Compound + LPS/IFNγ, 50 μM): 18.7925 µM
NO release, Avg [2, 6]: 1.1667 µM
inhibition at 50 µM [2, 7]: -0.9%
inhibition at 50 µM [2, 8]: -0.9%

Oc1ccc(CCc2ccc(O)c(O)c2)cc1O [Compound 4, 1,2-bis(3,4-dihydroxyphenyl)ethane]
inhibition at 50 µM (microglia): 94%
μM NO release [1, 3]: 0.000 µM
inhibition at 50 µM [1, 4]: 100%
inhibition at 50 µM [1, 5]: 100%
inhibition at 50 µM ([1]; 50 μM pretreatment, read-out: inhibition of NO release following pretreatment): > 75%
inhibition of NO release, in words ([2]; 50 μM, LPS/IFNγ stimulated microglial cells): very effective inhibitors of NO release
NO release, Avg ([2]; Compound + LPS/IFNγ, 50 μM): 1.0417 µM
NO release, Avg [2, 6]: 0.8660 µM
inhibition at 50 µM [2, 7]: 94.4%
inhibition at 50 µM [2, 8]: 94.4%
inhibition at 0.75 µM (Microglial cells; Microglia, 48 h, dose 0.75 μM): -11.1%
inhibition at 1.56 µM (Microglial cells; Microglia, 48 h, dose 1.56 μM): 2.52%
inhibition at 3.125 µM (Microglial cells; Microglia, 48 h, dose 3.125 μM): 6.14%
inhibition at 6.25 µM (Microglial cells; Microglia, 48 h, dose 6.25 μM, 48 hours, read-out: Avg % Inhibition): 36.2%
inhibition at 6.25 µM (Microglial cells; Microglia, 48 h, dose 6.25 μM, 48 hours, single replicates, read-out: % inhibition): 42.2%
inhibition at 12.5 µM (Microglial cells; Microglia, 48 h, dose 12.5 μM, 48 hours, read-out: Avg % Inhibition): 82.7%
inhibition at 12.5 µM (Microglial cells; Microglia, 48 h, dose 12.5 μM, 48 hours, single replicates, read-out: % inhibition): 85.1%
inhibition at 25 µM (Microglial cells; Microglia, 48 h, dose 25 μM, 48 hours, read-out: Avg % Inhibition): 86.2%
inhibition at 25 µM (Microglial cells; Microglia, 48 h, dose 25 μM, 48 hours, single replicates, read-out: % inhibition): 85.6%
inhibition at 50 µM (Microglial cells; Microglia, 48 h, dose 50 μM, 48 hours, read-out: Avg % Inhibition): 86.5%
inhibition at 50 µM (Microglial cells; Microglia, 48 h, dose 50 μM, 48 hours, single replicates, read-out: % inhibition): 87.2%
inhibition at 100 µM (Microglial cells; Microglia, 48 h, dose 100 μM, 48 hours, read-out: Avg % Inhibition): 82.2%
inhibition at 100 µM (Microglial cells; Microglia, 48 h, dose 100 μM, 48 hours, single replicates, read-out: % inhibition): 83%
inhibition at 200 µM (Microglial cells; Microglia, 48 h, dose 200 μM, 48 hours, read-out: Avg % Inhibition): 75%
inhibition at 200 µM (Microglial cells; Microglia, 48 h, dose 200 μM, 48 hours, single replicates, read-out: % inhibition): 77.4%
μM NO release Avg (Microglial cells; dose 0.75 μM, 48 hours): 27.011 µM
% inhibition (Microglial cells; [9]): −8.45% and −9.87% and −14.83%
OD values (printed under head μM NO release) (Microglial cells; [9]): 0.229 and 0.22 and 0.222
μM NO release (Microglial cells; [9]): 27.931 µM and 26.379 µM and 26.724 µM
μM NO release Avg (Microglial cells; dose 1.56 μM, 48 hours): 23.709 µM
% inhibition (Microglial cells; [10]): 6.85% and 4.93% and −4.20%
OD values (printed under head μM NO release) (Microglial cells; [10]): 0.214 and 0.197 and 0.2
μM NO release (Microglial cells; [10]): 25.345 µM and 22.656 µM and 23.125 µM
μM NO release Avg (Microglial cells; dose 3.125 μM, 48 hours): 22.829 µM
% inhibition (Microglial cells; [11]): 12.63% and 10.71% and −4.91%
OD values (printed under head μM NO release) (Microglial cells; [11]): 0.215 and 0.188 and 0.191
μM NO release (Microglial cells; [11]): 25.517 µM and 21.250 µM and 21.719 µM
μM NO release Avg (Microglial cells; dose 6.25 μM, 48 hours): 15.521 µM
% inhibition (Microglial cells; [12]): 40.26% and 26.12%
OD values (printed under head μM NO release) (Microglial cells; [12]): 0.167 and 0.142 and 0.145
μM NO release (Microglial cells; [12]): 17.969 µM and 14.063 µM and 14.531 µM
μM NO release Avg (Microglial cells; dose 12.5 μM, 48 hours): 4.21 µM
% inhibition (Microglial cells; [13]): 84.07% and 78.93%
OD values (printed under head μM NO release) (Microglial cells; [13]): 0.083 and 0.071 and 0.073
μM NO release (Microglial cells; [13]): 5.125 µM and 3.625 µM and 3.875 µM
μM NO release Avg (Microglial cells; dose 25 μM, 48 hours): 3.357 µM
% inhibition (Microglial cells; [14]): 87.89%
OD values (printed under head μM NO release) (Microglial cells; [14]): 0.071 and 0.07 and 0.064
μM NO release (Microglial cells; [14]): 3.625 µM and 3.500 µM and 2.947 µM
μM NO release Avg (Microglial cells; dose 50 μM, 48 hours): 3.292 µM
OD values (printed under head μM NO release) (Microglial cells; [15]): 0.071 and 0.067 (2×)
μM NO release (Microglial cells; [15]): 3.625 μM and 3.125 μM (2×)
μM NO release Avg (Microglial cells; dose 100 μM, 48 hours): 4.333 µM
% inhibition (Microglial cells; [16]): 82.01% and 81.50%
OD values (printed under head μM NO release) (Microglial cells; [16]): 0.078 and 0.075 and 0.077
μM NO release (Microglial cells; [16]): 4.500 µM and 4.125 µM and 4.375 µM
Avg % Inhibition (Microglial cells; dose 200 μM, 48 hours): 75.332%
μM NO release Avg (Microglial cells; dose 200 μM, 48 hours): 6.000 µM
% inhibition (Microglial cells; [17]): 74.30%
OD values (printed under head μM NO release) (Microglial cells; [17]): 0.092 (2×) and 0.086
μM NO release (Microglial cells; [17]): 6.250 μM (2×) and 5.500 μM
inhibition of NO release, in words (Microglial cells; dose response 0.75-200 μM): effective inhibitors of NO release

O=C(CCC(=O)Nc1ccc(O)c(O)c1)Nc1ccc(O)c(O)c1 [Compound 66, succinic acid bis(3,4-dihydroxyanilide)]
inhibition at 50 µM (microglia): 17%
% inhibition [1, 3]: 59.20% and 65.21%
inhibition at 50 µM [1, 4]: 64.3%
inhibition at 50 µM [1, 5]: 68.4%
NO release, Avg ([2]; Compound + LPS/IFNγ, 50 μM): 15.4762 µM
NO release, Avg [2, 6]: 0.8333 µM
inhibition at 50 µM [2, 7]: 16.9%
inhibition at 50 µM [2, 8]: 16.9%
